Source: US5057522A, “Anti-hypersensitive N2-tetrazole-β-glucuronide analog” (Merck & Co., Inc., priority 1990, dated 1991)

Biological target: T1, Angiotensin II (A II) receptor (Oryctolagus cuniculus, UniProt P34976)
T1 construct: membrane preparation derived from rabbit aortae; tissue Pel-Freeze Biologicals; host or cells: rabbit aorta membrane preparation
T1 sequence (P34976 1-359): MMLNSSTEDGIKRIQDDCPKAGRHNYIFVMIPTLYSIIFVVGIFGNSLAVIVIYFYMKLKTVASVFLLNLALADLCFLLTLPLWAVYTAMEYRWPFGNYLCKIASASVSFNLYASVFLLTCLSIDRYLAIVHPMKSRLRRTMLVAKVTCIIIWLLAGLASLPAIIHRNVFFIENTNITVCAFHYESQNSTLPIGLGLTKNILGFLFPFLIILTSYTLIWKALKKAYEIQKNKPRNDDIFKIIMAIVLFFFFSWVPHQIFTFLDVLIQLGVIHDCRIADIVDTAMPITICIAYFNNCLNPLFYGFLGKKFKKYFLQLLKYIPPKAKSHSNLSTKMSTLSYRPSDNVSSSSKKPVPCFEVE
Assay: Receptor binding assay using rabbit aortae membrane preparation (displacement of 125I-Sar1 Ile8-angiotensin II; "IC50" assay)
Procedure: This assay is also referred to herein as the "IC50 " assay.
RECEPTOR BINDING ASSAY USING RABBIT AORTAE MEMBRANE PREPARATION
Three frozen rabbit aortae (obtained from Pel-Freeze Biologicals) were suspended in 5 mM Tris-0.25M Sucrose, pH 7.4 buffer (50 ml) homogenized, and then centrifuged. The mixture was filtered through a cheesecloth and the supernatant was centrifuged for 30 minutes at 20,000 rpm at 4° C. The pellet thus obtained was resuspended in 30 ml of 50 mM Tris-5 mM MgCl2 buffer containing 0.2% Bovine Serum Albumin and 0.2 mg/ml Bacitration and the suspension was used for 100 assay tubes. Samples tested for screening were done in duplicates. To the membrane preparation (0.25 ml) there was added ^125 I-Sar^1 Ile^8 -angiotensin II [obtained from New England Nuclear] (10 ul; 20,000 cpm) with or without the test sample and the mixture was incubated at 37° C. for 90 minutes. The mixture was then diluted with ice-cold 50 mM Tris-0.9% NaCl, pH 7.4 (4 ml) and filtered through a glass fiber filter (GF/B Whatman 2.4" diameter). The filter was soaked in scintillation cocktail (10 ml) and counted for radioactivity using Packard 2660 Tricarb liquid scintillation counter. […]

- A II antagonist activity by the IC50 assay: exhibits A II antagonist activity
- IC50 (37° C., 90 minutes, read-out: inhibitory concentration (IC50) giving 50% displacement of the total specifically bound 125I-Sar1 Ile8-angiotensin II): < 50 µM
Compound: CCc1nc2c(C)cc(C)nc2n1Cc1ccc(-c2ccccc2-c2nnn([C@@H]3O[C@H](C(=O)O)[C@@H](O)[C@H](O)[C@H]3O)n2)cc1 [compound (I)]
